Laboratory results as given in patent US20170143738A1, “SOLID FORMULATION AND METHOD FOR STABILIZING THE SAME” (EA Pharma Co., Ltd., priority 2014, published 2017).

What was measured:
[1] = Storage stability of Elobixibat alone or mixed 1:1 with an additive: total related substance(s) by HPLC; assay type: physicochemical; conditions: stored in an open state for 2 weeks, 60° C. and 75% relative humidity
Method: (§1) 1,1-dioxo-3,3-dibutyl-5-phenyl-7-methylthio-8-(N—{(R)-1′-phenyl-1′-[N′-(carboxymethyl)carbamoyl]methyl}carbamoylmethoxy)-2,3,4,5-tetrahydro-1,5-benzothiazepine (Elobixibat) and an additive shown in Table 1 were mixed in a weight ratio of 1:1. Thereby, the mixtures according to Reference Examples 2 to 10 were obtained. The mixture of each of Reference Examples 2 to 10, and only Elobixibat as Reference Example 1 was independently stored in an open state for 2 weeks under the conditions of 60° C. and 75% relative humidity. The material of Reference Example 1 and the mixtures according to Reference Examples 2 to 10 after storage were independently dispersed and dissolved in acetonitrile aqueous solution. The total amount of related substance(s) in the aforementioned aqueous solution was calculated as the sum of the areas in percentage for Elobixibat by the measurement in accordance with an HPLC method. In addition, the presence or absence of coloration of the mixtures of Reference Examples 1 to 7 after storage was visually observed. “%” shown in Table 1 indicates percent by weight.

[2] = Visual observation of coloration of Elobixibat and Elobixibat/additive mixtures after storage; assay type: physicochemical; conditions: 60° C. and 75% relative humidity, visually observed
Method: as §1

Total amount of related substance(s) after storage ([1]; weight ratio 1:1 with additive, sum of HPLC areas in percentage for Elobixibat): 0.6%
Coloration: Before storage → after storage ([2]; colour before and after 2 weeks open storage): White → white
Coloration after storage ([2]; stored in an open state for 2 weeks): Not observed
Compound: CCCCC1(CCCC)CN(c2ccccc2)c2cc(SC)c(OCC(=O)N[C@@H](C(=O)NCC(=O)O)c3ccccc3)cc2S(=O)(=O)C1 [Reference Example 1, 1,1-dioxo-3,3-dibutyl-5-phenyl-7-methylthio-8-(N—{(R)-1′-phenyl-1′-[N′-(carboxymethyl)carbamoyl]methyl}carbamoylmethoxy)-2,3,4,5-tetrahydro-1,5-benzothiazepine]
Increase of the amount of related substance(s) after storage (in words) ([1]; summary of Table 1): a great increase of the related substance(s) was not observed
